Source: patent US5659049A, “Antioxidant, antiphospholipase derivatives of ricinoleic acid” (Virginia Commonwealth University, priority 1995, dated 1997)

Test system: N. naja cobra venom phospholipase
Test: In vitro inhibition of N. naja cobra venom phospholipase (FIG. 8)
Assay type: biochemical

In the case of `CCCCCCC(C/C=C\CCCCCCCC(=O)O)OC(=O)CCCCCCCCC(=O)O` (stereo not shown) [RISE-1, Ricinoleic Acid Sebacyl Ester], the “Inhibition of N. naja cobra venom phospholipase” value is reported as “dose related, selective in vitro inhibition”.
